# Patent publication US20110092367A1, “Herbicidal Compositions Comprising 4-amino-3,6-dichloropyridine-2-carboxylic Acid” (BASF SE, priority 2008, published 2011)
# How the values were obtained:
# Type in all cases: in vivo
# Centauria cyanus = experiment: Greenhouse trial, post-emergence: CENCY; details: post-emergence; for % activity 28 DAT: CENCY
# Description: (§1) The test plants have been seeded, separately for each species, in plastic containers in sandy loamy soil containing 5% organic matter.
# (§2) For the post emergence treatment, the plants were first grown to the 2 leaf station (GS 12). Here, the herbicidal compositions were suspended or emulsified in water as distribution medium and sprayed using finely distributing nozzels.
# (§3) The plants have been cultivated due to there individual requirements at 10-25° C. and 20-35° C. The plants were irrigated due to there necessity. […]
# (§4) The evaluation for the damage on undesired weeds caused by the chemical compositions was carried out using a scale from 0 to 100%, compared to the untreated control plants. Here, 0 means no damage and 100 means complete destruction of the plants.
# (§5) Calculation of expected activity of binary mixtures was done by using the Colby-Formula according to Example 1.
# Lamium purpureum = experiment: Greenhouse trial, post-emergence: LAMPU; details: for % activity 28 DAT: LAMPU
# Description: as §1, §2, §3, §4, §5
# Stellaria media [1] = experiment: Greenhouse trial, post-emergence: STEME; details: flufenacet 60 g ai/ha solo, post-emergence
# Description: as §1, §2, §3, §4, §5
# Papaver rhoeas [2] = experiment: Greenhouse trial, post-emergence: PAPRH
# Description: as §1, §2, §3, §4, §5
# Capsella bursa-pasturis = experiment: Greenhouse trial, post-emergence: CAPBP; details: post-emergence (Table 10)
# Description: as §1, §2, §3, §4, §5
# Mercurialis annua = experiment: Greenhouse trial, post-emergence: MERAN; details: for % activity 28 DAT: MERAN
# Description: as §1, §2, §3, §4, §5
# Centaurea cyanus = experiment: Field trial Example 2, combined application: CENCY; details: Metazachlor 375 g ai/ha solo, 78 DAT
# Description: (§6) Aminiopyralid was used as commercial aquaeous solution having an active ingredient concentration of 240 g/l (Milestone™). Metazachlor was used as a commercial suspension concentrate having an active ingredient concentration of 500 g/l (Butisan S®).
# as §4
# (§7) The value E, which is to be expected if the activity of the individual compounds is just additive, was calculated using the method of S. R. Colby (1967) “Calculating synergistic and antagonistic responses of herbicide combinations”, Weeds 15, p. 22 ff.
# (§8) The performance of aminopyralid, applied as an alone treatment at […] and 15 g ai/ha, and the performance of metazachlor, applied as an alone treatment at 375 and 500 g ai/ha, as well as the mixtures of the both compounds have been assessed in winter oilseed rape field trials. The trials have been conducted in Germany at two locations.
# (§9) Post emergence treatment was applied by means of fine distributed nozzels at the growth stage (GS/BBCH 11/12).
# Papaver rhoeas [3] = experiment: Field trial Example 2, combined application: PAPRH
# Description: as §6, §4, §7, §8, §9
# Matricaria inodora = experiment: Field trial Example 2, combined application: MATIN
# Description: as §6, §4, §7, §8, §9
# Anthemis arvensis = experiment: Field trial Example 2, combined application: ANTAR
# Description: as §6, §4, §7, §8, §9
# Alopecurus myosuroides = experiment: Field trial Example 2, combined application: ALOMY; details: Metazachlor 500 g ai/ha solo, 28 DAT
# Description: as §6, §4, §7, §8, §9
# Stellaria media [4] = experiment: Field trial Example 2, combined application: STEME; details: Metazachlor 500 g ai/ha solo, 28 DAT
# Description: as §6, §4, §7, §8, §9
# Matricaria chamomilla = experiment: Greenhouse trial, post-emergence: MATCH; details: solo, 187 g ai/ha, greenhouse
# Description: as §1, §2
# The plants have been cultivated due to there individual requirements at 10-25° C. and 20-35° C. The plants were irrigated due to there necessity.
# In the following experiments, the herbicidal activity for the individual herbicide compounds (solo and mixture applications), the herbicidal succession was assessed 14 days after treatment (DAT).
# as §4, §5
# E=(X+Y+Z)−(X*Y+X*Z+Y*Z/100)+(X*Y*Z/1000)
# Tables 6 to 10 relate to the herbicidal activity, in greenhouse trials, of the individual actives and the combination in post-emergence application 14 DAT.
# [5] = clopyralid 120 g ai/ha solo, post-emergence (Table 10)
# [6] = clopyralid 60 g ai/ha solo, post-emergence (Table 10)
# [7] = metazachlor 375 g ai/ha solo, post-emergence (Table 10)
# [8] = Metazachlor 375 g ai/ha solo, 28 DAT
# [9] = Metazachlor 375 g ai/ha solo, 29 DAT
# [10] = Metazachlor 500 g ai/ha solo, 29 DAT
# [11] = metazachlor 187 g ai/ha solo, post-emergence (Table 10)
# [12] = pethoxamid 600 g ai/ha solo, post-emergence
compound,measurement,setting,value
CC(C)N(C(=O)COc1nnc(C(F)(F)F)s1)c1ccc(F)cc1 [flufenacet],% activity 28 DAT,Centauria cyanus; flufenacet 60 g ai/ha solo,0%
same,% activity 28 DAT,Centauria cyanus; flufenacet 120 g ai/ha solo,20%
same,% activity 28 DAT,"Lamium purpureum; flufenacet 60 g ai/ha solo, post-emergence",60%
same,% activity 28 DAT,"Lamium purpureum; flufenacet 120 g ai/ha solo, post-emergence",60%
same,% activity 28 DAT,Stellaria media [1],0%
O=C(O)c1nc(Cl)ccc1Cl [clopyralid],% activity 28 DAT,Papaver rhoeas [2]; [5],20%
same,% activity 28 DAT,Capsella bursa-pasturis; clopyralid 120 g ai/ha solo,10%
same,% activity 28 DAT,Mercurialis annua; [6],15%
same,% activity 28 DAT,Lamium purpureum; [6],15%
same,% activity 28 DAT,Lamium purpureum; [5],15%
Cc1cccc(C)c1N(Cn1cccn1)C(=O)CCl [metazachlor],% activity 28 DAT,Papaver rhoeas [2]; [7],30%
same,% activity 28 DAT,Capsella bursa-pasturis; metazachlor 375 g ai/ha solo,25%
same,% activity,Centaurea cyanus,32%
same,inhibition at 187 g/ha,"Centauria cyanus; 672 h, solo, 187 g ai/ha, greenhouse, 28 DAT",20%
same,% activity,Papaver rhoeas [3]; [8],50%
same,% activity,Papaver rhoeas [3]; [9],55%
same,% activity,"Papaver rhoeas [3]; Metazachlor 375 g ai/ha solo, 72 DAT",53%
same,% activity,"Papaver rhoeas [3]; Metazachlor 375 g ai/ha solo, 78 DAT",55%
same,% activity,Papaver rhoeas [3]; [10],75%
same,% activity,Matricaria inodora; [8],42%
same,% activity,Matricaria inodora; [9],88%
same,% activity,"Matricaria inodora; Metazachlor 500 g ai/ha solo, 28 DAT",67%
same,% activity 28 DAT,Mercurialis annua; [11],15%
same,inhibition at 187 g/ha,"Mercurialis annua; Mercurialis annua, 672 h, solo, 187 g ai/ha, post-emergence, greenhouse, 28 DAT",15%
same,% activity 28 DAT,Lamium purpureum; [11],75%
same,% activity 28 DAT,Lamium purpureum; [7],75%
same,inhibition at 187 g/ha,"Lamium purpureum; Lamium purpureum, 672 h, solo, 187 g ai/ha, post-emergence, greenhouse, 28 DAT",75%
same,% activity,Anthemis arvensis; [9],40%
same,% activity,Anthemis arvensis; [10],57%
same,% activity,"Anthemis arvensis; Metazachlor 500 g ai/ha solo, 78 DAT",60%
same,% activity,Alopecurus myosuroides,82%
same,% activity,Stellaria media [4],88%
same,inhibition at 187 g/ha,Matricaria chamomilla,10%
CCOCCN(C(=O)CCl)C(=C(C)C)c1ccccc1 [pethoxamid],% activity 28 DAT,Papaver rhoeas [2]; [12],25%
same,% activity 28 DAT,Centauria cyanus; pethoxamid 150 g ai/ha solo,0%
same,% activity 28 DAT,Centauria cyanus; pethoxamid 300 g ai/ha solo,25%
same,% activity 28 DAT,Centauria cyanus; pethoxamid 600 g ai/ha solo,30%
same,% activity 28 DAT,"Mercurialis annua; pethoxamid 150 g ai/ha solo, post-emergence",0%
same,% activity 28 DAT,"Mercurialis annua; pethoxamid 300 g ai/ha solo, post-emergence",0%
same,% activity 28 DAT,Mercurialis annua; [12],10%
"COC[C@H](C)N(C(=O)CCl)c1c(C)csc1C [DMTA-P, Dimethenamid-P]",% activity 28 DAT,Centauria cyanus; DMTA-P 125 g ai/ha solo,20%
same,% activity 28 DAT,"Mercurialis annua; DMTA-P 63 g ai/ha solo, post-emergence",15%
same,% activity 28 DAT,"Mercurialis annua; DMTA-P 125 g ai/ha solo, post-emergence",25%
